Assay results published in patent publication US11155551B2, “Nicotinic acetylcholine receptor silent agonists” (University of Florida Research Foundation, Inc., priority 2015, dated 2021).

Key:
human α7 nAChR = target: T1, human α7 nAChR (Homo sapiens, UniProt P36544); assay: Two-electrode voltage clamping of human α7 nAChR expressed in Xenopus oocytes (net-charge / peak current relative to 60 μM ACh); format: cell-based; conditions: for functional classification at α7 nAChR: 30 μM alone and with 10 μM PNU-120596, partial agonist = net charge > 1/10th ACh control; for Potentiated response: 30 μM test compound + 10 μM PNU-120596 co-application; for Potentiated response / Relative response: relative to 60 μM ACh control, mean ± SEM, N ≥ 4; for Relative response: net-charge response to 30 μM test compound alone; for PAM-dependent currents relative to ACh: co-application with PNU-120596, meta-substituted series; for PNU Response: 30 μM compound + 10 μM PNU-120596, relative to 60 μM ACh controls (n ≥ 4); for Net Charge / Peak current: 30 μM compound alone, relative to 60 μM ACh controls (n ≥ 4); for Ratio (peak current to net charge): 30 μM, normalized peak current / normalized net charge; for Estimated Rank efficacy / Estimated Rank potency: rank among six partial agonists; for Estimated Rank potency: from peak-current-to-net-charge ratio; for PAM-dependent response compared to the parent diEPP: co-application with PNU-120596
T1 construct: expressed in transfected cells; host or cells: Xenopus oocytes
Description: Electrophysiology: The panel of compounds synthesized was assayed using human α7 nAChR expressed in Xenopus oocytes and two-electrode voltage clamping. The partial agonism activity was evaluated, quantified as net-charge for 30 μM applications of compounds, measured relative to the control response to applications of 60 μM ACh. The induction of PAM-sensitive desensitization was detected as the net-charge responses when compounds were co-applied with the PAM PNU-120596 (30 μM compound+10 μM PNU-120596), measured relative to responses to 60 μM ACh applied alone. […] It is a unique property of α7 orthosteric agonist-induced currents that they vary systematically in the relationship between peak current and net charge as a function of the effective concentration applied (Papke & Papke (2002) Br. J. Pharm. 137: 49-61; Papke & Thinschmidt (1998) Neurosci. Let. 256: 163-166). This was due to the concentration-dependent desensitization of the receptors, which is likely to be associated with high levels of agonist binding site occupancy (Williams et al., (2011) J. Gen. Physiol. 137: 369-384) and is observed even when agonists are rapidly applied to small cells (Williams et al., (2012) Mol. Pharmacol. 82: 746-759) or acutely dissociated neurons (Uteshev et al., (2002) Brain Res. 948: 33-46). The control ACh concentration used for these experiments is roughly the EC80 for the net-charge responses.
By normalizing both the peak currents and net-charge measurements of the drug responses at the probe concentration of 30 μM (FIG. 3B) to those of the ACh control, the relationship between the probe concentration and the EC for each of the drugs was estimated (Papke, R. L. (2005) Life Sci.). At a concentration where the ratio of the normalized measures equaled one, the drug would be at the same effective concentration as 60 μM ACh.
Electrophysiology: New compounds were assayed for activity with the α7 nAChR expressed in Xenopus oocytes using two-electrode voltage clamping as previously described in Papke et al., (2014) J. Pharmacol. Experimental Therap. 350: 665-680, incorporated herein by reference in its entirety, and compared to responses evoked by 60 μM Ach (FIGS. 5 and 6). The compound set was assayed at a concentration of 30 μM to provide a standard comparison benchmark.
Based on earlier experience this concentration is high enough to provide an observable response and low enough to avoid possible complications such as channel block. The net-charge response for each compound application is reported relative to those for ACh control applications. Data were expressed as the mean ±S.E.M. from at least four oocytes for each experiment and were plotted by Kaleidagraph (Abelbeck Software, Reading, Pa.).

T1 sequence (P36544 23-502): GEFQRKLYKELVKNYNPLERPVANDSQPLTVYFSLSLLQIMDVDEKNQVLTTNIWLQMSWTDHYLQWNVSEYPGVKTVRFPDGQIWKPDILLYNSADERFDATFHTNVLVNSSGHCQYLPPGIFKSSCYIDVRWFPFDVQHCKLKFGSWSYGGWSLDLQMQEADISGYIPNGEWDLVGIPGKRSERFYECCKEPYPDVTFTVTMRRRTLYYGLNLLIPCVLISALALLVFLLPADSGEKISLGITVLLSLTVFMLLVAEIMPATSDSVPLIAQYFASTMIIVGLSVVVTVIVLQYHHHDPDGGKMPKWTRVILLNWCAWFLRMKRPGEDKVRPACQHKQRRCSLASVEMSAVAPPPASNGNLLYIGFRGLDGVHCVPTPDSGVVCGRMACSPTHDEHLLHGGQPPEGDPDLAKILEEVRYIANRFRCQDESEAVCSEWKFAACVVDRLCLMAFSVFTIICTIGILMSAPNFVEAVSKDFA

SMILES	functional classification at α7 nAChR (human α7 nAChR)	Potentiated response (human α7 nAChR)	Relative response (human α7 nAChR)	further results
CCN1CCN(c2ccc(OC)cc2)CC1				melting point: 56.6 to 57.8 °C
CC[N+]1(CC)CCN(c2ccc(F)cc2)CC1.[I-] [Compound 2r, 1,1-diethyl-4-(4-fluorophenyl)piperazin-1-ium iodide]	candidate silent agonists	22.9 ± 5.8	0.010 ± 0.002	
CCN1CCN(c2cccc(Br)c2)CC1 [Compound 1p, 1-(3-bromophenyl)-4-ethylpiperazine]	modest silent agonism	6.9±2.4	0.000 ± 0.003	response relative to diEPP (human α7 nAChR; PAM co-application response): approximately 5 fold; response relative to its corresponding quaternary salt 2p (human α7 nAChR; PAM co-application response): 0.69 fold
CC[N+]1(CC)CCN(c2cccc(Cl)c2)CC1.[I-] [Compound 2f, 4-(3-chlorophenyl)-1,1-diethylpiperazin-1-ium iodide]	candidate silent agonists	4.2 ± 1.0	0.020 ± 0.003	PAM-dependent currents relative to ACh (human α7 nAChR): 4.23 fold
CCN1CCN(c2ccc3ccccc3c2)CC1				melting point: 69.1 to 70 °C
CC[N+]1(CC)CCN(c2ccc(OC)cc2)CC1.[I-] [Compound 2c, 1,1-diethyl-4-(4-methoxyphenyl)piperazin-1-ium iodide]	candidate silent agonists	11.6 ± 0.3	0.063 ± 0.014	
CC[N+]1(CC)CCN(c2ccc(OC)cc2OC)CC1.[I-] [Compound 2l, 4-(2,4-dimethoxyphenyl)-1,1-diethylpiperazin-1-ium iodide]	not a partial agonist	1.1 ± 0.1	0.014 ± 0.009	
CC[N+]1(CC)CCN(c2ccccc2Cl)CC1.[I-] [Compound 2j, 4-(2-chlorophenyl)-1,1-diethylpiperazin-1-ium iodide]	partial agonists	36.6 ± 6.1	0.367 ± 0.054	PNU Response (human α7 nAChR): 37 ± 6; Net Charge (human α7 nAChR): 0.37 ± 0.05; Peak current (human α7 nAChR): 0.23 ± 0.03; Ratio (peak current to net charge) (human α7 nAChR): 0.63; Estimated Rank efficacy (human α7 nAChR): 2; Estimated Rank potency (human α7 nAChR): 4
CC[N+]1(CC)CCC(=Cc2ccccc2)CC1.[I-] [Compound 8, 4-benzylidene-1,1-diethylpiperidinium iodide]		9.9 ± 3.1	0.071 ± 0.027	PAM-dependent response compared to the parent diEPP (human α7 nAChR): enhanced PAM-dependent responses
CCN1CCN(c2ccc(Br)cc2)CC1				melting point: 85 to 85.5 °C
CC[N+]1(CC)CCN(c2ccc(C#N)cc2)CC1.[I-] [Compound 2b, 4-(4-cyanophenyl)-1,1-diethylpiperazin-1-ium iodide]	partial agonists	68.0 ± 25.4	0.234 ± 0.024	PNU Response (human α7 nAChR): 68 ± 25; Net Charge (human α7 nAChR): 0.23 ± 0.02; Peak current (human α7 nAChR): 0.10 ± 0.01; Ratio (peak current to net charge) (human α7 nAChR): 0.43; Estimated Rank efficacy (human α7 nAChR): 3; Estimated Rank potency (human α7 nAChR): 6
CC[N+]1(CC)CCN(c2ccc(Br)cc2)CC1.[I-] [Compound 2q, 4-(4-bromophenyl)-1,1-diethylpiperazin-1-ium iodide]		12.3 ± 3.5	0.270 ± 0.017	
CC[N+]1(CC)CCN(c2cccc(C(F)(F)F)c2)CC1.[I-] [Compound 2o, 1,1-diethyl-4-(3-(trifluoromethyl)phenyl)piperazin-1-ium iodide]	candidate silent agonists	3.1 ± 2.1	0.000 ± 0.002	
CC[N+]1(CC)CCN(c2cccc(C#N)c2)CC1.[I-] [Compound 2i, 4-(3-cyanophenyl)-1,1-diethylpiperazin-1-ium iodide]	no significant activity as either partial agonists or as silent agonists	1.5 ± 0.7	0.022 ± 0.024	PAM-dependent response compared to the parent diEPP (human α7 nAChR): equivalent
CC[N+]1(CC)CCN(c2cccc(O)c2)CC1.[I-] [Compound 2k, 1,1-diethyl-4-(3-hydroxyphenyl)piperazin-1-ium iodide]	partial agonists	31.4 ± 5.1	0.283 ± 0.013	PNU Response (human α7 nAChR): 31 ± 5; Net Charge (human α7 nAChR): 0.28 ± 0.02; Peak current (human α7 nAChR): 0.19 ± 0.02; Ratio (peak current to net charge) (human α7 nAChR): 0.67; Estimated Rank efficacy (human α7 nAChR): 4; Estimated Rank potency (human α7 nAChR): 3
CC[N+]1(CC)CCC(Nc2ccccc2)CC1.[I-] [Compound 6, 1,1-diethyl-4-(phenylamino)piperidinium iodide]	no channel activation within experimental error	5.6 ± 2.1	0.002 ± 0.004	PAM-dependent response compared to the parent diEPP (human α7 nAChR): enhanced PAM-dependent responses
CCN1CCN(c2cccc(O)c2)CC1				melting point: 150.3 to 151.6 °C
CCN1CCN(c2cccc(Cl)c2)CC1 [Compound 1f, 1-(3-chlorophenyl)-4-ethylpiperazine]		0.1 ± 0.1	0.009 ± 0.008	
CC[N+]1(CC)CCN(c2ccccc2C)CC1.[I-] [Compound 2h, 1,1-diethyl-4-o-tolylpiperazin-1-ium iodide]	partial agonists	16.4 ± 2.4	0.319 ± 0.066	PNU Response (human α7 nAChR): 16 ± 2; Net Charge (human α7 nAChR): 0.32 ± 0.07; Peak current (human α7 nAChR): 0.15 ± 0.02; Ratio (peak current to net charge) (human α7 nAChR): 0.46; Estimated Rank efficacy (human α7 nAChR): 1; Estimated Rank potency (human α7 nAChR): 5
CC[N+]1(CC)CCN(c2ccc(Cl)cc2)CC1.[I-] [Compound 2e, 4-(4-chlorophenyl)-1,1-diethylpiperazin-1-ium iodide]	partial agonists	18.3 ± 6.2	0.234 ± 0.048	PNU Response (human α7 nAChR): 18 ± 6; Net Charge (human α7 nAChR): 0.23 ± 0.05; Peak current (human α7 nAChR): 0.17 ± 0.02; Ratio (peak current to net charge) (human α7 nAChR): 0.71; Estimated Rank efficacy (human α7 nAChR): 5; Estimated Rank potency (human α7 nAChR): 1
CC[N+]1(CC)CCN(c2cccc(C(N)=O)c2)CC1.[I-] [Compound 2u, 4-(3-carbamoylphenyl)-1,1-diethylpiperazin-1-ium iodide]	candidate silent agonists	50.7 ± 8.5	0.056 ± 0.022	
CC[N+]1(CC)CCN(c2ccc(C(N)=O)cc2)CC1.[I-] [Compound 2t, 4-(4-carbamoylphenyl)-1,1-diethylpiperazin-1-ium iodide]	candidate silent agonists	43.9 ± 8.5	0.065 ± 0.009	
CC[N+]1(CC)CCN(c2cccc(F)c2)CC1.[I-] [Compound 2s, 1,1-diethyl-4-(3-fluorophenyl)piperazin-1-ium iodide]	no significant activity as either partial agonists or as silent agonists	0.2 ± 0.1	0.061 ± 0.089	PAM-dependent currents relative to ACh (human α7 nAChR): 0.2 fold
CC[N+]1(CC)CCN(c2ccc3ccccc3c2)CC1.[I-] [Compound 2m, 1,1-diethyl-4-(naphthalen-2-yl)piperazin-1-ium iodide]	partial agonist	15.9 ± 2.3	0.143 ± 0.018	PNU Response (human α7 nAChR): 16 ± 2; Net Charge (human α7 nAChR): 0.14 ± 0.02; Peak current (human α7 nAChR): 0.10 ± 0.02; Ratio (peak current to net charge) (human α7 nAChR): 0.71; Estimated Rank efficacy (human α7 nAChR): 6; Estimated Rank potency (human α7 nAChR): 1
